The values below come from publication PMC4643876, “Picomolar Inhibition of Plasmepsin V, an Essential Malaria Protease, Achieved Exploiting the Prime Region” (PLoS ONE, 2015).

The target in the assay is T1, Plasmepsin V (PmV) (Plasmodium falciparum, UniProt Q8I6Z5).
T1 construct: PmV was purified directly from parasites; made in house
The assay can be described thus: PmV inhibition, fluorimetric PExEl cleavage assay. It is filed as biochemical. The procedure: Saponin was added to culture to a final 0.05%; parasites were recovered via centrifugation at 4°C after 5 min of incubation on ice; parasite pellets were then washed twice in cold PBS and either immediately lysed or stored at -80°C until lysis. Parasites were lysed via three pulses of ultra-sonication of 10 sec duration, in PBS containing 0.5% Triton-X100 (TX-100). […] Quick washes of the resin were performed either in batches, or over columns, to remove unbound cellular material (four with ice-cold 0.5% TX-100 in PBS and a final one with cold PBS). Resin-bound PmV was stored in PBS at 4°C and used within 2–3 weeks, larger batches had Glycerol added to them, up to 10%, and were stored at -20°C for up to 5 months. […] Quality and purity of PmV batches were routinely confirmed by protein electrophoresis. Quantification of PmV was performed via densitometry analysis of stained protein SDS-PAGE gels relative to BSA standard curves.
PExEl cleavage activity was monitored by fluorimetric measurement of PExEl cleavage, as previously reported. […] PmV activity was performed at 37°C in 50 mM Tris-Maleate, pH 6.5, 50 mM NaCl, 0.05% TX-100, 2 mM DTT. Assays were routinely conducted in triplicate. Bead-bound enzyme was added to the reaction using ‘end-cut’ micropipette tips in order to facilitate sampling the suspension.
Inhibitory activities were measured in the presence of a substrate concentration of 3 μM by serial dilution of each compound in triplicates. […] Titration curves of the inhibitors were routinely composed of eleven points from 10 μM to 0.1 pM. PmV concentration was kept in the order of low picomolar (≤10 pM). […] Analysis of the half inhibitory activity (IC50) was performed by sigmoidal interpolation of the starting velocities of the hydrolytic reactions for each condition. Starting velocities were calculated on the initial linear range of the product progression curves. […] Data are presented with error bars indicating the standard deviation of three independent activity curves.

[1] abbreviates: 3 μM HRPII-PExEl substrate, averages of not less than three inhibition curves, read-out: IC50.
The mark [2] stands for this setting: Activity, read-out: pIC50 (converted).
Setting [3] is: 3 μM substrate, tested up to 10 μM, read-out: IC50.

Each structure is given as a SMILES string. Read-outs that look alike come from different tables or passages of the source. Square brackets hold non-standard residues; d marks the D form. Peptide text beside a SMILES is read from it. * marks the point of attachment. Sta = CC(C)C[C@H](N)[C@@H](O)CC(=O)O; Isovaleryl = CC(C)CC(=O)*

T1 sequence (Q8I6Z5 whole entry): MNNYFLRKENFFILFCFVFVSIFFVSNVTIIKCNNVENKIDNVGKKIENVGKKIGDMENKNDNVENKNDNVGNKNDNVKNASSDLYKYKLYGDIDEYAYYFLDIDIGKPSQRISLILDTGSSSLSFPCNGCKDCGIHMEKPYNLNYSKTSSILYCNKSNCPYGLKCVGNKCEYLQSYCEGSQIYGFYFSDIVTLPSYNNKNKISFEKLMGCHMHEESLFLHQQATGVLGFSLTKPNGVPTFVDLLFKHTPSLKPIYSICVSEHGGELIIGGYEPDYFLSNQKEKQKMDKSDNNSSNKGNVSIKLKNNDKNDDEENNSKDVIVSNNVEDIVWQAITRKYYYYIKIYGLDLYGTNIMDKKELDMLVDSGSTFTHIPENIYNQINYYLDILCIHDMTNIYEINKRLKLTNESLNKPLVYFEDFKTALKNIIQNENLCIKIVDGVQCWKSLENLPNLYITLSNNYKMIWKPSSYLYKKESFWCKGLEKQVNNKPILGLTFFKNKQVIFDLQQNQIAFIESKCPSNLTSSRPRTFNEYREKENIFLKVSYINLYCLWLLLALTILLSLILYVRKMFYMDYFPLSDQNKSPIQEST

What is called Ki is a measure of affinity in units of concentration, obtained from inhibition or displacement. Low readings indicate a stronger hold on the target, high ones a looser hold on the target. Regarding `CC(C)C[C@H](NC(=O)[C@@H](N)Cc1c[nH]cn1)C(=O)N[C@@H](CC(C)C)[C@@H](O)CN[C@@H](C)C(=O)N[C@@H](CCC(=O)O)C(=O)N[C@@H](C)C(N)=O` [Compound 14a], the inhibition constant (Ki) is 910 nM. Moreover, under setting [1], the IC50 is 1690 nM.

Take `CC(C)C[C@H](NC(=O)[C@H](C)NC(=O)[C@@H](N)CCCNC(=N)N)[C@@H](O)CN[C@@H](Cc1ccc(O)cc1)C(=O)N[C@@H](CCC(=O)O)C(=O)N[C@@H](C)C(N)=O` [Compound 11a]: the “IC50 increase compared to Compound 7a” value stood at 5 fold and the affinity, expressed as Ki, was 3.3 nM. For the same compound, the IC50 under setting [1] is 6.14 nM.

As for `CC(C)C[C@H](NC(=O)[C@H](CO)NC(=O)[C@@H](N)CCCNC(=N)N)C(O)CN[C@@H](Cc1ccc(O)cc1)C(=O)N[C@@H](CCC(=O)O)C(=O)N[C@@H](C)C(N)=O` (mixture of isomers) [Compound 12], the “IC50 increase compared to Compound 7a” value was determined as 15 fold and the Ki came to 12.4 nM. In addition, the IC50 under setting [1] was determined as 23.1 nM.

For the compound `CC(C)C[C@H](NC(=O)[C@@H](N)CCCNC(=N)N)C(=O)N[C@@H](CC(C)C)C(O)CN[C@@H](C)C(=O)N[C@@H](CCC(=O)O)C(=O)N[C@@H](C)C(N)=O` (stereo partly shown) [LG20_Mix], the IC50 is, setting by setting: (Activity, read-out: IC50) 0.37 nM; under setting [2], 0.363 nM.

Take `CC(C)CC(=O)N[C@H](C(=O)N[C@H](C(=O)N[C@@H](CC(C)C)[C@@H](O)CC(=O)N[C@@H](C)C(=O)N[C@@H](CC(C)C)[C@@H](O)CC(=O)O)C(C)C)C(C)C` [Pepstatin A, reference compound] (Isovaleryl-VV[Sta]A[Sta]-OH): the Ki came out at 23400 nM. Besides, the IC50 under setting [1] amounted to 43500 nM.

The compound `CC(C)C[C@H](NC(=O)[C@@H](N)Cc1c[nH]cn1)C(=O)N[C@@H](CC(C)C)[C@@H](O)CN[C@@H](Cc1ccc(O)cc1)C(=O)N[C@@H](CCC(N)=O)C(=O)N[C@@H](C)C(N)=O` [Compound 20a] had a Ki of 4410 nM. For the same compound, the IC50 under setting [1] is 8200 nM.

Take `CC(C)C[C@H](NC(=O)[C@@H](N)CCCNC(=N)N)C(=O)N[C@@H](CC(C)C)C(O)CN[C@@H](C)C(=O)NCC(=O)O` (mixture of isomers) [Compound 25]: the Ki turned out to be 8.03 nM. Further, the IC50 under setting [1] amounted to 15 nM.

For `CC(C)C[C@H](NC(=O)[C@@H](N)Cc1c[nH]c2ccccc12)C(=O)N[C@@H](CC(C)C)[C@@H](O)CN[C@H](C(=O)N[C@@H](CCC(=O)O)C(N)=O)[C@@H](C)O` [Compound 34a], under setting [3], the IC50 was more than 10000 nM.

As for `CC(C)C[C@H](NC(=O)[C@@H](N)CCCNC(=N)N)C(=O)N[C@@H](CC(C)C)[C@@H](O)CN[C@@H](Cc1ccc(O)cc1)C(=O)N[C@@H](CCC(=O)O)C(=O)N[C@@H](C)C(N)=O` [Compound 7a], the “IC50 increase compared to Compound 1” value is given as 4–7 fold and the inhibition constant Ki is 0.74 nM. In addition, under setting [1], the IC50 amounted to 1.38 nM.

For `CC(C)C[C@H](NC(=O)[C@@H](N)CCCNC(=N)N)C(=O)N[C@@H](CC(C)C)[C@H](O)CN[C@@H](Cc1ccc(O)cc1)C(=O)NCC(=O)O` [LG69B_R], the IC50 is, setting by setting: (Activity, read-out: IC50) 111 nM; under setting [2], 112 nM.

Compound `CC(C)C[C@H](NC(=O)[C@@H](N)Cc1ccc(O)cc1)C(=O)N[C@@H](CC(C)C)[C@H](O)CN[C@@H](C)C(=O)N[C@@H](CCC(=O)O)C(=O)N[C@@H](C)C(N)=O` [Compound 3b] returned a Ki of 6570 nM. The IC50 under setting [1] was approximately 12200 nM.

For the compound `CC(C)C[C@H](NC(=O)[C@@H](N)CCCCN)C(=O)N[C@@H](CC(C)C)[C@@H](O)CN[C@@H](C)C(=O)N[C@@H](CCC(=O)O)C(N)=O` [LG61A_S], the IC50 is 8180 nM (Activity, read-out: IC50) and 8130 nM under setting [2].

On to `CC(C)C[C@H](NC(=O)[C@@H](N)CCCNC(=N)N)C(=O)N[C@@H](CC(C)C)[C@@H](O)CN[C@@H](Cc1ccc(O)cc1)C(=O)NCC(=O)O` [Compound 27a], for which the affinity corresponds to a Ki of 1.86 nM. Moreover, the IC50 under setting [1] turned out to be 3.47 nM.

Turning to `CC(C)C[C@H](NC(=O)[C@@H](N)CCCCN)C(=O)N[C@@H](CC(C)C)[C@@H](O)CN[C@@H](Cc1ccc(O)cc1)C(=O)N[C@@H](CCC(=O)O)C(N)=O` [Compound 30a], under setting [3], the IC50 was more than 10000 nM.

`CC(C)C[C@H](NC(=O)[C@@H](N)CCCNC(=N)N)C(=O)N[C@@H](CC(C)C)C(O)CN[C@@H](C)C(=O)N[C@@H](CCC(=O)O)C(N)=O` (mixture of isomers) [Compound 22] yielded a Ki of 0.22 nM. In addition, under setting [1], the IC50 was found to be 0.42 nM.

Take `CC(C)C[C@H](NC(=O)[C@@H](N)CCCNC(=N)N)C(=O)N[C@@H](CC(C)C)[C@H](O)CN[C@@H](Cc1ccc(O)cc1)C(=O)N[C@@H](CCC(=O)O)C(N)=O` [Compound 2b]: the Ki came out at 17.3 nM. Further, the IC50 under setting [1] was 32.2 nM.

Turning to `CC(C)C[C@H](NC(=O)[C@@H](N)Cc1c[nH]c2ccccc12)C(=O)N[C@@H](CC(C)C)C(O)CN[C@@H](C)C(=O)N[C@@H](CCC(=O)O)C(N)=O` (mixture of isomers) [Compound 31], the IC50 under setting [3] was more than 10000 nM.

For the compound `CCCCCCCC(=O)N[C@@H](CCCNC(=N)N)C(=O)N[C@@H](CC(C)C)C(=O)N[C@@H](CC(C)C)[C@H](O)CN[C@@H](Cc1ccc(O)cc1)C(=O)N[C@@H](CCC(=O)O)C(=O)N[C@@H](C)C(N)=O` [LG63B_R], the IC50 reads like this: (Activity, read-out: IC50) 1.57 nM; under setting [2], 1.58 nM.

`CC(C)C[C@H](NC(=O)[C@@H](N)CCCCN)C(=O)N[C@@H](CC(C)C)C(O)CN[C@@H](C)C(=O)N[C@@H](CCC(N)=O)C(=O)N[C@@H](C)C(N)=O` (mixture of isomers) [Compound 18]: the IC50 under setting [1] is more than 10000 nM.

In turn, `CC(C)C[C@H](NC(=O)[C@@H](N)Cc1c[nH]c2ccccc12)C(=O)N[C@@H](CC(C)C)[C@@H](O)CN[C@@H](C)C(=O)N[C@@H](CCC(N)=O)C(=O)N[C@@H](C)C(N)=O` [Compound 19a] came in with a Ki of 2760 nM. Besides, the IC50 under setting [1] was determined as 5130 nM.

`CC(C)C[C@H](NC(=O)[C@@H](N)Cc1ccc(O)cc1)C(=O)N[C@@H](CC(C)C)[C@@H](O)CN[C@@H](C)C(=O)N[C@@H](CCC(=O)O)C(=O)N[C@@H](C)C(N)=O` [Compound 3a] returned a Ki of 2510 nM. For the same compound, the IC50 under setting [1] was found to be 4680 nM.

Take `CC(C)C[C@H](NC(=O)[C@@H](N)CCCCN)C(=O)N[C@@H](CC(C)C)[C@@H](O)CN[C@@H](Cc1ccc(O)cc1)C(=O)N[C@@H](CCC(=O)O)C(N)=O` [LG62A_S]: the IC50 is, setting by setting: (Activity, read-out: IC50) 17500 nM; under setting [2], 17400 nM.

Turning to `CC(C)C[C@H](NC(=O)[C@@H](N)CCCNC(=N)N)C(=O)N[C@@H](CC(C)C)[C@@H](O)CN[C@@H](Cc1ccc(O)cc1)C(=O)N[C@@H](CCC(N)=O)C(=O)O` [Compound 26a], the Ki amounted to 9.35 nM. Besides, the IC50 under setting [1] turned out to be 17.4 nM.

As to `Cc1cccc(C)c1OCC(=O)N[C@@H](Cc1ccccc1)[C@@H](O)C[C@H](Cc1ccccc1)NC(=O)[C@H](C(C)C)N1CCCNC1=O` [Lopinavir, reference compound], affinity was put at a Ki of 11000 nM. Also, the IC50 under setting [1] is 20600 nM.

With `CC(C)C[C@H](NC(=O)[C@@H](N)Cc1c[nH]c2ccccc12)C(=O)N[C@@H](CC(C)C)[C@@H](O)CN[C@@H](CO)C(=O)N[C@@H](CCC(=O)O)C(N)=O` [Compound 33a], the IC50 under setting [3] was more than 10000 nM.

`CC(C)C[C@H](NC(=O)[C@@H](N)CCCCN)C(=O)N[C@@H](CC(C)C)[C@@H](O)CN[C@@H](C)C(=O)N[C@@H](CCC(=O)O)C(=O)N[C@@H](C)C(N)=O` [Compound 13a] gave a Ki of 412 nM. Further, the IC50 under setting [1] is 767 nM. Besides, the IC50 under setting [3] is 770 nM.

With `CC(C)C[C@H](NC(=O)[C@@H](N)CCCNC(=N)N)C(=O)N[C@@H](CC(C)C)[C@@H](O)CN[C@@H](Cc1ccc(O)cc1)C(=O)N[C@@H](CCC(N)=O)C(=O)N[C@@H](C)C(N)=O` [Compound 9a], the “IC50 increase compared to Compound 7a” value is ~ 9 fold, the “IC50 increase compared to Compound 8a” value is 4–7 fold and the Ki was determined as 6.8 nM. In addition, the IC50 under setting [1] stood at 12.7 nM.

As for `CC(C)C[C@H](NC(=O)[C@@H](N)CCCNC(=N)N)C(=O)N[C@@H](CC(C)C)[C@@H](O)CN[C@@H](Cc1ccc(O)cc1)C(=O)N[C@@H](CCC(=O)O)C(N)=O` [Compound 2a], the Ki amounted to 0.98 nM. In addition, the IC50 under setting [1] is 1.83 nM.

`CC(C)C[C@H](NC(=O)[C@@H](N)CCCNC(=N)N)C(=O)N[C@@H](CC(C)C)C(O)CN[C@@H](C)C(=O)N[C@@H](CCC(N)=O)C(N)=O` (mixture of isomers) [Compound 23]: the “IC50 increase compared to Compound 8a” value is recorded as 2.5 fold and the affinity corresponds to a Ki of 6.94 nM. Also, the IC50 under setting [1] was found to be 12.9 nM.

As for `CC(C)C[C@H](NC(=O)[C@@H](N)CCCNC(=N)N)C(=O)N[C@@H](CC(C)C)[C@@H](O)CN[C@@H](C)C(=O)N[C@@H](CCC(N)=O)C(=O)O` [Compound 24a], the affinity corresponds to a Ki of 8.9 nM. The IC50 under setting [1] is 16.6 nM.

`CC(C)C[C@H](NC(=O)[C@@H](N)Cc1c[nH]c2ccccc12)C(=O)N[C@@H](CC(C)C)[C@@H](O)CN[C@@H](Cc1ccc(O)cc1)C(=O)N[C@@H](CCC(N)=O)C(=O)N[C@@H](C)C(N)=O` [Compound 21a]: the Ki was determined as 673 nM. For the same compound, under setting [1], the IC50 is 1250 nM.
